In patent publication US11236044B2, “Selective inhibitors of 12(S)-lipoxygenase (12-LOX) and methods for use of the same” (THE REGENTS OF THE UNIVERSITY OF MICHIGAN, priority 2018, dated 2022):
Read-outs that look alike come from different tables or passages of the source.

How the values were obtained:
[1] = Pharmacokinetic study of the inhibitors in mice blood plasma (PO and IV); type: in vivo; settings: for concentration at 2 h / concentration at 4 h / concentration at 7 h: mouse, plasma, 30 mg/kg
Experimental: Pharmacokinetic Study of the Inhibitors in Mice Blood Plasma
The blood plasma concentration of compounds A1, A2, and A4 in mice was determined following per os, oral compound administration (“PO”) and intravenous (“IV”) administration
Calibration curve. The concentration range was evaluated from 2.5-5000 ng/ml for compound A2, 1-5000 ng/ml for compound A4, and 5-5000 ng/ml for compound A1. The curve was built with linear regression with weighing (1/X2). The linear regression analysis was performed by plotting the peak area ratio (y) against the concentration (x) in ng/mL.
Instrument Conditions. The LC-MS and mass spectrometry conditions for the compounds tested are shown below.
Results. The individual and average compound A1, A2, and A4 concentration-time data for IV and PO dosed groups are listed in Table 1, and graphically presented in FIG. 1.

[2] = in vivo; cited from earlier work
[3] = tested on: thrombus formation and vessel occlusion; settings: cited from earlier work
[4] = molecular target: reticulocyte 15-human lipoxygenase type-1 (Homo sapiens, UniProt P16050); settings: 12-LOX versus paralog; cited from earlier work
[5] = molecular target: T1, epithelial 15-human lipoxygenase type-2 (Homo sapiens, UniProt O15296); settings: 12-LOX versus paralog; cited from earlier work
T1 sequence (O15296 1-676): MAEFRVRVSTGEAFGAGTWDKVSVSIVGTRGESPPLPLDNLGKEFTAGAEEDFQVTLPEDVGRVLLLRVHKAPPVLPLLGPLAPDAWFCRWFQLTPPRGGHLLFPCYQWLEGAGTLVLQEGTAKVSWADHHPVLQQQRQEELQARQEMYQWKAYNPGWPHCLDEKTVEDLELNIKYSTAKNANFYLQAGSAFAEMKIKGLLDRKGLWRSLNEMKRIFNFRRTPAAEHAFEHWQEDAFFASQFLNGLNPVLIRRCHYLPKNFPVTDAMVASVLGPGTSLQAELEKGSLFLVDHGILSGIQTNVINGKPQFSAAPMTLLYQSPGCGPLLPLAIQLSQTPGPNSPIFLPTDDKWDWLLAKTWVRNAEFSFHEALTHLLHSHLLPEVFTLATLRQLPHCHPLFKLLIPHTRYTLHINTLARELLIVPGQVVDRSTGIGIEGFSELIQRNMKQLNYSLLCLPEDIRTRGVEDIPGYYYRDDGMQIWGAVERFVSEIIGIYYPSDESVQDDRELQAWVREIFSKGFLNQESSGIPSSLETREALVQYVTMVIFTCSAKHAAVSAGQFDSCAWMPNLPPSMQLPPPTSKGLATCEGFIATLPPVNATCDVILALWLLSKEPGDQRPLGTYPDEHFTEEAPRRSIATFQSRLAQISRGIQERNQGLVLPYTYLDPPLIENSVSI

[6] = molecular target: T2, bovine cyclooxygenase (“COX”)-1 (Bos taurus, UniProt O62664); settings: 12-LOX versus bovine COX-1; cited from earlier work
T2 sequence (O62664 25-600): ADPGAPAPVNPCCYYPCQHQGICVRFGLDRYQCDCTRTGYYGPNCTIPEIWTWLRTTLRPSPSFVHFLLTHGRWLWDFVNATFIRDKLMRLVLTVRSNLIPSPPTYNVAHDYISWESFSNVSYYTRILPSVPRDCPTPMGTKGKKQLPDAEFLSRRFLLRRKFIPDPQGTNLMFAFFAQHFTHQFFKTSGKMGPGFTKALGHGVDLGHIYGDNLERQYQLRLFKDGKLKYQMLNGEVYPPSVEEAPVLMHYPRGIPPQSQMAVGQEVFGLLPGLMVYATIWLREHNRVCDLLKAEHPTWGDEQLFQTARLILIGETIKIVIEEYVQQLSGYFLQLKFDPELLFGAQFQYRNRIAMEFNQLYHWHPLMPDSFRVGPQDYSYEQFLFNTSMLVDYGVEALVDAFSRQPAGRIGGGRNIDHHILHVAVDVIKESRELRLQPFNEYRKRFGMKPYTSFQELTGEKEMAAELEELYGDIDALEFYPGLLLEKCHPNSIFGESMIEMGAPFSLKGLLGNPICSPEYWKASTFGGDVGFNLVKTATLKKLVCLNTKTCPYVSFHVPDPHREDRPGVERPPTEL

human COX-2 = molecular target: T3, human COX-2 (Homo sapiens, UniProt P35354); settings: 12-LOX versus human COX-2; cited from earlier work
T3 sequence (P35354 18-604): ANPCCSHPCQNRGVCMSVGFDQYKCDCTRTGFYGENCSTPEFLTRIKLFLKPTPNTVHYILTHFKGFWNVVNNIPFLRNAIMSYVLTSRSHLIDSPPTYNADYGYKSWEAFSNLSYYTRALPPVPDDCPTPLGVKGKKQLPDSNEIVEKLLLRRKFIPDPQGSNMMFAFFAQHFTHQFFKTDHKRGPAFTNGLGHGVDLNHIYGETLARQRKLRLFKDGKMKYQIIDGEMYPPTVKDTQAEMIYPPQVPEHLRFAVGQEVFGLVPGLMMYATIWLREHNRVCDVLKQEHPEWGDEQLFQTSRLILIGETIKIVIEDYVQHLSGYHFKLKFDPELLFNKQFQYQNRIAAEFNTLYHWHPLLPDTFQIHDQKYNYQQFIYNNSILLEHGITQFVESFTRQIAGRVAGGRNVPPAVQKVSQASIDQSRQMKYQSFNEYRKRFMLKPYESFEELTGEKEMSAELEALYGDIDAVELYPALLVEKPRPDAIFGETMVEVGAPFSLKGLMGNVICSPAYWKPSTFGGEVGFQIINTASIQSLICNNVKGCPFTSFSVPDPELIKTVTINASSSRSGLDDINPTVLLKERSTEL

5-human lipoxygenase = molecular target: T4, 5-human lipoxygenase (Homo sapiens, UniProt P09917); settings: 12-LOX versus paralog; cited from earlier work
T4 sequence (P09917 1-674): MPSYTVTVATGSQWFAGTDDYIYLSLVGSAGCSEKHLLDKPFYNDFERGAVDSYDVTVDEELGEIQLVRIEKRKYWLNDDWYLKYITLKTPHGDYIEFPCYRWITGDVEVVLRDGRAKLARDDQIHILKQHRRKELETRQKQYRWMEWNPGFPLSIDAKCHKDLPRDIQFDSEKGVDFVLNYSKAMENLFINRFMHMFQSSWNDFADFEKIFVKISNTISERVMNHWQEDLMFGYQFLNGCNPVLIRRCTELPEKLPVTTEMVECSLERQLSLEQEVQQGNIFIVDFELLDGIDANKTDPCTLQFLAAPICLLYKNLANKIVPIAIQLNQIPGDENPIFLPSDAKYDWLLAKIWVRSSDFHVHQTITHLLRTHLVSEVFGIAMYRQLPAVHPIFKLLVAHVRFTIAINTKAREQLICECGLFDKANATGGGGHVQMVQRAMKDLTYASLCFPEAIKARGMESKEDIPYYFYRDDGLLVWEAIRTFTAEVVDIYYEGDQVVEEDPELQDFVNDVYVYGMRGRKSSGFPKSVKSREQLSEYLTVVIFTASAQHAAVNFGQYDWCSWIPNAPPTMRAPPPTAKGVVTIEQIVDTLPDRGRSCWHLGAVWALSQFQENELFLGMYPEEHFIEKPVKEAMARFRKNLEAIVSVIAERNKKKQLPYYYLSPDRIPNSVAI

[7] = cited from earlier work
[8] = cited from earlier work; remark: listed apart in the source
[9] = iv, IV 30 mg/kg, 2 h, n=3 (outliers excluded), read-out: Concentration in Plasma, Mean
[10] = iv, IV 30 mg/kg, 2 h, read-out: Concentration in Plasma, Mouse 1
[11] = iv, IV 30 mg/kg, 2 h, read-out: Concentration in Plasma, Mouse 2
[12] = iv, IV 30 mg/kg, 2 h, read-out: Concentration in Plasma, Mouse 3
[13] = iv, IV 30 mg/kg, 4 h, read-out: Concentration in Plasma, Mouse 1
[14] = iv, IV 30 mg/kg, 4 h, read-out: Concentration in Plasma, Mouse 3
[15] = iv, IV 30 mg/kg, 7 h, n=3 (outliers excluded), read-out: Concentration in Plasma, Mean
[16] = iv, IV 30 mg/kg, 7 h, read-out: Concentration in Plasma, Mouse 1
[17] = iv, IV 30 mg/kg, 7 h, read-out: Concentration in Plasma, Mouse 2
[18] = iv, IV 30 mg/kg, 7 h, read-out: Concentration in Plasma, Mouse 3
[19] = po, PO 30 mg/kg, 2 h, n=3 (outliers excluded), read-out: Concentration in Plasma, Mean
[20] = po, PO 30 mg/kg, 2 h, read-out: Concentration in Plasma, Mouse 3
[21] = po, PO 30 mg/kg, 4 h, n=3 (outliers excluded), read-out: Concentration in Plasma, Mean
[22] = po, PO 30 mg/kg, 4 h, read-out: Concentration in Plasma, Mouse 1
[23] = po, PO 30 mg/kg, 4 h, read-out: Concentration in Plasma, Mouse 3
[24] = po, PO 30 mg/kg, 7 h, n=3 (outliers excluded), read-out: Concentration in Plasma, Mean
[25] = po, PO 30 mg/kg, 7 h, read-out: Concentration in Plasma, Mouse 1
[26] = po, PO 30 mg/kg, 7 h, read-out: Concentration in Plasma, Mouse 2

Chain of reticulocyte 15-human lipoxygenase type-1 (P16050 whole entry): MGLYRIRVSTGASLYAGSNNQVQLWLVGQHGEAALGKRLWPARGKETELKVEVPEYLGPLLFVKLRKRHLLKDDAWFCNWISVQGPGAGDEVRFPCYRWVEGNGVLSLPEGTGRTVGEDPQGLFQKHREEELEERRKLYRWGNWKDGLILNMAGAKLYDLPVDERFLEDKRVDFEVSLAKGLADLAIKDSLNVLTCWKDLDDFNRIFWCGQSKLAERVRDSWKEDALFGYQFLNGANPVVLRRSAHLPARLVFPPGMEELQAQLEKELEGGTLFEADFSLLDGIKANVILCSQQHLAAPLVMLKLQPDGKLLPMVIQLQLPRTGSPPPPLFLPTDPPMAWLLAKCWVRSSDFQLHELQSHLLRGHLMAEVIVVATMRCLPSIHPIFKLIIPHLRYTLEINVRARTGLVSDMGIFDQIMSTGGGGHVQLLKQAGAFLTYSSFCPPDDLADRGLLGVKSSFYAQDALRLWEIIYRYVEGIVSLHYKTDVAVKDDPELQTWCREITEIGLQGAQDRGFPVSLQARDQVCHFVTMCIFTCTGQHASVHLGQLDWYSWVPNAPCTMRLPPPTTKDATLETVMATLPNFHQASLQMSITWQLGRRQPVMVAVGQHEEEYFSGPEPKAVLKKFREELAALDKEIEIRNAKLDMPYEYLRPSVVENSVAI

| Structure (SMILES) | concentration at 2 h [1, 9] | concentration at 2 h [1, 10] | concentration at 2 h [1, 11] | concentration at 2 h [1, 12] | concentration at 4 h [1, 13] | concentration at 4 h [1, 14] | concentration at 7 h [1, 15] | concentration at 7 h [1, 16] | concentration at 7 h [1, 17] | concentration at 7 h [1, 18] | concentration at 2 h [1, 19] | concentration at 2 h [1, 20] | concentration at 4 h [1, 21] | concentration at 4 h [1, 22] | concentration at 4 h [1, 23] | concentration at 7 h [1, 24] | concentration at 7 h [1, 25] | concentration at 7 h [1, 26] | also measured |
| --- | --- | --- | --- | --- | --- | --- | --- | --- | --- | --- | --- | --- | --- | --- | --- | --- | --- | --- | --- |
| COc1cccc(CNc2ccc(S(=O)(=O)Nc3cccc(C(F)(F)F)c3)cc2)c1O [Compound A2] | 199 ng/mL | 144 ng/mL | 333 ng/mL | 118 ng/mL | 127 ng/mL | 96 ng/mL | 31 ng/mL | 49.3 ng/mL | 16.4 ng/mL | 27.4 ng/mL | 145 ng/mL | 230 ng/mL | 74.3 ng/mL | 38.9 ng/mL | 81.2 ng/mL | 91.3 ng/mL | 106 ng/mL | 76.8 ng/mL | Concentration in Plasma, Mouse 2 ([1]; IV 30 mg/kg, 4 h): *1369.6 ng/ml; Concentration in Plasma, Mouse 2 ([1]; PO 30 mg/kg, 2 h): *6042.8 ng/ml; Concentration in Plasma, Mouse 3 ([1]; PO 30 mg/kg, 7 h): *301.8 ng/ml; concentration at 4 h ([1]; iv, IV 30 mg/kg, 4 h, n=3 (outliers excluded), read-out: Concentration in Plasma, Mean): 112 ng/mL; concentration at 2 h ([1]; po, PO 30 mg/kg, 2 h, read-out: Concentration in Plasma, Mouse 1): 59 ng/mL; concentration at 4 h ([1]; po, PO 30 mg/kg, 4 h, read-out: Concentration in Plasma, Mouse 2): 103 ng/mL |
| COc1cccc(CNc2ccc(S(=O)(=O)Nc3cccc(C4(C(F)(F)F)CC4)c3)cc2)c1O [Compound A4, 4-((2-hydroxy-3-methoxybenzyl)amino)-N-(3-(1-(trifluoromethyl)cyclopropyl)phenyl)benzenesulfonamide] | 112 ng/mL | 94.2 ng/mL | 172 ng/mL | 71 ng/mL | 20.8 ng/mL | 20.6 ng/mL | 10.2 ng/mL | 24.1 ng/mL | 5.6 ng/mL | 0.8 ng/mL | 5260 ng/mL | 410 ng/mL | 33.6 ng/mL | 33.4 ng/mL | 33.8 ng/mL | 29 ng/mL | 33.2 ng/mL | 22.9 ng/mL | Concentration in Plasma, Mouse 1 ([1]; PO 30 mg/kg, 2 h): *20.2 ng/ml; Concentration in Plasma, Mouse 2 ([1]; PO 30 mg/kg, 4 h): *127.5 ng/ml; concentration at 4 h ([1]; iv, IV 30 mg/kg, 4 h, read-out: Concentration in Plasma, Mouse 2): 28.8 ng/mL; concentration at 2 h ([1]; po, PO 30 mg/kg, 2 h, read-out: Concentration in Plasma, Mouse 2): 642 ng/mL; concentration at 7 h ([1]; po, PO 30 mg/kg, 7 h, read-out: Concentration in Plasma, Mouse 3): 30.9 ng/mL |
| COc1cccc(CNc2ccc(S(=O)(=O)Nc3nc4ccccc4s3)cc2)c1O [ML355] | – | – | – | – | – | – | – | – | – | – | – | – | – | – | – | – | – | – | pharmacokinetics [2]: reasonable pharmacokinetics; thrombus formation and vessel occlusion in vivo [3]: impair thrombus formulation and vessel occlusion in vivo; effects on hemostasis ([3]; in vivo): minimal affects on hemostasis; selectivity versus reticulocyte 15-human lipoxygenase type-1 [4]: > 50 fold; selectivity versus epithelial 15-human lipoxygenase type-2 [5]: > 50 fold; selectivity versus bovine COX-1 [6]: > 100 fold; selectivity versus human COX-2 (human COX-2): > 100 fold; selectivity versus 5-human lipoxygenase (5-human lipoxygenase): > 50 fold; tolerance in preclinical studies [7]: relatively good tolerance; solubility [8]: limited solubility |
